Experimental data as given in US8586098B2, “Loading of hydrophobic drugs into hydrophilic polymer delivery systems” (Biocompatibles UK Limited, priority 2006, dated 2013).
Values after ≈ are worked out from the molar mass of the structure shown. Like-named read-outs stand apart in the source and are kept apart here.

Legend:
[1] = solubility in DMSO at room temperature; assay type: physicochemical; details: for Sol^y in DMSO / Sol^y Ratio: room temperature; for Sol^y Ratio: solubility in solvent (DMSO):solubility in water
Source text: For these compounds the following table gives comparison water and solvent solubilities at room temperature. […]

[2] = solubility in water at room temperature; assay type: physicochemical; details: for Sol^y in water: room temperature
Source text: For these compounds the following table gives comparison water and solvent solubilities at room temperature.

[3] = background description; cited from earlier work
[4] = background description; cited from earlier work; remark: listed apart in the source
[5] = benzyl alcohol, chloroform, acetone, acetonitrile; cited from earlier work

SMILES: CC[C@@]1(O)C(=O)OCc2c1cc1n(c2=O)Cc2cc3ccccc3nc2-1 [Camptothecin]
- Sol^y in DMSO [1]: 10 g/L
- Sol^y Ratio [1]: >10^3
- Sol^y in water [2]: insol (insoluble means less than 10 mg/l)

SMILES: C[C@@H]1C[C@H]2[C@@H]3CCC4=CC(=O)C=C[C@]4(C)[C@@]3(F)[C@@H](O)C[C@]2(C)[C@@]1(O)C(=O)CO [Dexamethasone]
- solubility ([1]; DMSO, organic solvent or mixture, room temp, Example 3): ~60 mg/mL (≈ 153 mM)
- Sol^y in DMSO [1]: 600 g/L
- Sol^y Ratio [1]: >10^5
- solubility in water (in words) ([2]; Example 3): practically insoluble in water
- Sol^y in water [2]: insol (insoluble means less than 10 mg/l)

SMILES: CN(Cc1cnc2nc(N)nc(N)c2n1)c1ccc(C(=O)N[C@@H](CCC(=O)O)C(=O)O)cc1 [Methotrexate]
- Sol^y in DMSO [1]: 200 g/L
- Sol^y Ratio [1]: >5 × 10^4
- Sol^y in water [2]: insol (insoluble means less than 10 mg/l)

SMILES: CC(=O)O[C@H]1C(=O)[C@@]2(C)[C@H]([C@H](OC(=O)c3ccccc3)[C@]3(O)C[C@H](OC(=O)[C@H](O)[C@@H](NC(=O)c4ccccc4)c4ccccc4)C(C)=C1C3(C)C)[C@]1(OC(C)=O)CO[C@@H]1C[C@@H]2O [Paclitaxel, 5β,20-Epoxy-1,2α,4,7β,10β,13α-hexahydroxytax-11-en-9-one 4,10-diacetate-2-benzoate 13-ester with (2R,3S)—N-benzoyl-3-phenylisoserine]
- solubility in water (in words) [3]: insoluble in water
- Sol^y in DMSO [1]: 50 g/L
- Sol^y in water [2]: 0.3 to 30 mg/L
- lipophilicity (in words) [4]: highly lipophilic

SMILES: CO[C@H]1C[C@@H]2CC[C@@H](C)[C@@](O)(O2)C(=O)C(=O)N2CCCC[C@H]2C(=O)O[C@H]([C@H](C)C[C@@H]2CC[C@@H](O)[C@H](OC)C2)CC(=O)[C@H](C)/C=C(\C)[C@@H](O)[C@@H](OC)C(=O)[C@H](C)C[C@H](C)/C=C/C=C/C=C/1C [Rapamycin]
- solubility in water (in words) [3]: insoluble in water
- solubility in organic solvents (in words) [5]: freely soluble in benzyl alcohol, chloroform, acetone, and acetonitrile
- Sol^y in DMSO [1]: 25 g/L
- Sol^y Ratio [1]: >4 × 10^4
- Sol^y in water [2]: 0.69 mg/L
